Reference: article PMC7104723 (Cell Research, 2020)
Where “and” joins values, the source holds several entries; their conditions need not be identical. Equal entries are not always repeated. Non-standard residues stand in square brackets, D forms with d. Residues, ends and D or L forms follow the SMILES beside them. *: point of attachment. X1 = CC(C)CCC[C@@H](C)[C@H]1CC[C@H]2[C@@H]3CC=C4C[C@@H](OC(=O)C*)CC[C@]4(C)[C@H]3CC[C@]12C; PEG4 = NCCOCCOCCOCCOCCC(=O)O

Legend:
[1] = target: SARS-CoV-2 S protein (Severe acute respiratory syndrome coronavirus 2, UniProt P0DTC2); assay: cell-based; assay type: cell-based
[2] = tested on: SARS-CoV-2 PsV; conditions: PsV, 72 h
[3] = tested on: live HCoV-229E; conditions: 1 h
[4] = tested on: MERS-CoV PsV; conditions: 72 h
[5] = target: HCoV-NL63 S protein (Human coronavirus NL63, UniProt Q6Q1S2); assay: cell-based; assay type: cell-based
[6] = tested on: WIV1 PsV; conditions: 72 h
[7] = tested on: HCoV-OC43 PsV; conditions: 72 h
[8] = tested on: Rs3367 PsV; conditions: 72 h
[9] = tested on: live MERS-CoV; conditions: 72 h
[10] = tested on: live SARS-CoV-2; conditions: live, 72 h
[11] = tested on: HCoV-NL63 PsV; conditions: 72 h
[12] = tested on: live HCoV-NL63; conditions: 1 h
[13] = target: MERS-CoV S protein (Middle East respiratory syndrome-related coronavirus, UniProt K9N5Q8); assay: cell-based; assay type: cell-based
Chain of MERS-CoV S protein (K9N5Q8 18-1353 limits assumed): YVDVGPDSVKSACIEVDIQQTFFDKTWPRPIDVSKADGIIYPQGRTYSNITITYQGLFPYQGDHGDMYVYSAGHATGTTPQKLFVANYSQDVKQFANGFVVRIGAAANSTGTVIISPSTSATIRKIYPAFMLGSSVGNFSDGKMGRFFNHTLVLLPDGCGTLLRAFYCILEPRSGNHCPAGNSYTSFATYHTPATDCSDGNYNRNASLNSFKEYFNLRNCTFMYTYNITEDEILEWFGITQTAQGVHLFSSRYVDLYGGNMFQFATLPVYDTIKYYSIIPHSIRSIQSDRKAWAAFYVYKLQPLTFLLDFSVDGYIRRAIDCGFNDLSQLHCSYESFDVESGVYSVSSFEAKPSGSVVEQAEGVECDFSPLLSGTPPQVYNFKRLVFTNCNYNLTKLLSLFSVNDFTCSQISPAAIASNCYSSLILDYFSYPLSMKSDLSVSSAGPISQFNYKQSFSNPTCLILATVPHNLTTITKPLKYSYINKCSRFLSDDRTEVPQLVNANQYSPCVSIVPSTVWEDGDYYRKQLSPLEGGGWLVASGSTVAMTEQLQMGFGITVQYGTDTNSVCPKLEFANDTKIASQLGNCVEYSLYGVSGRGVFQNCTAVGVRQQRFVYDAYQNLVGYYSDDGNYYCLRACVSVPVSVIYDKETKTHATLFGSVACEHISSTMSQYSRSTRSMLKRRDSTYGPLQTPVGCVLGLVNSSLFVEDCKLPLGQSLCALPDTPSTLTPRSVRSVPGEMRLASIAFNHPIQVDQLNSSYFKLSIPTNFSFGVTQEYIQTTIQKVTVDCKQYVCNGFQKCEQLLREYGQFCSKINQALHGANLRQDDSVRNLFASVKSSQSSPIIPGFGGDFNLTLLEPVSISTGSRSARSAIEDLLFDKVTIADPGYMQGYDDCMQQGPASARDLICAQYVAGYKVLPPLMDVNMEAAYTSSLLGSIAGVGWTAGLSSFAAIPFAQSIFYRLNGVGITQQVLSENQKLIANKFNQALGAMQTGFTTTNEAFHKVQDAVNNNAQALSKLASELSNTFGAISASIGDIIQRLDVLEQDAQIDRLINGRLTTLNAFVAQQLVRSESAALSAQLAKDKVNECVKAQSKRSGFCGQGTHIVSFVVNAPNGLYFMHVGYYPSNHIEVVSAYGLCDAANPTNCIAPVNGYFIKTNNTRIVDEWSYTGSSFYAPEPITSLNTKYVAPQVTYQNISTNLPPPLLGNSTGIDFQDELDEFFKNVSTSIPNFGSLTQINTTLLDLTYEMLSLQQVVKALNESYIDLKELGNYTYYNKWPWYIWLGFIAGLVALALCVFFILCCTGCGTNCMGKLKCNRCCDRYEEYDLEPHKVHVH

[14] = tested on: HCoV-229E PsV; conditions: 72 h
[15] = target: SARS-CoV S protein (Severe acute respiratory syndrome coronavirus, UniProt P59594); assay: cell-based; assay type: cell-based
[16] = tested on: SARS-CoV PsV; conditions: 72 h
[17] = target: HCoV-229E S protein (Human coronavirus 229E, UniProt P15423); assay: cell-based; assay type: cell-based
Chain of HCoV-229E S protein (P15423 16-1173 limits assumed): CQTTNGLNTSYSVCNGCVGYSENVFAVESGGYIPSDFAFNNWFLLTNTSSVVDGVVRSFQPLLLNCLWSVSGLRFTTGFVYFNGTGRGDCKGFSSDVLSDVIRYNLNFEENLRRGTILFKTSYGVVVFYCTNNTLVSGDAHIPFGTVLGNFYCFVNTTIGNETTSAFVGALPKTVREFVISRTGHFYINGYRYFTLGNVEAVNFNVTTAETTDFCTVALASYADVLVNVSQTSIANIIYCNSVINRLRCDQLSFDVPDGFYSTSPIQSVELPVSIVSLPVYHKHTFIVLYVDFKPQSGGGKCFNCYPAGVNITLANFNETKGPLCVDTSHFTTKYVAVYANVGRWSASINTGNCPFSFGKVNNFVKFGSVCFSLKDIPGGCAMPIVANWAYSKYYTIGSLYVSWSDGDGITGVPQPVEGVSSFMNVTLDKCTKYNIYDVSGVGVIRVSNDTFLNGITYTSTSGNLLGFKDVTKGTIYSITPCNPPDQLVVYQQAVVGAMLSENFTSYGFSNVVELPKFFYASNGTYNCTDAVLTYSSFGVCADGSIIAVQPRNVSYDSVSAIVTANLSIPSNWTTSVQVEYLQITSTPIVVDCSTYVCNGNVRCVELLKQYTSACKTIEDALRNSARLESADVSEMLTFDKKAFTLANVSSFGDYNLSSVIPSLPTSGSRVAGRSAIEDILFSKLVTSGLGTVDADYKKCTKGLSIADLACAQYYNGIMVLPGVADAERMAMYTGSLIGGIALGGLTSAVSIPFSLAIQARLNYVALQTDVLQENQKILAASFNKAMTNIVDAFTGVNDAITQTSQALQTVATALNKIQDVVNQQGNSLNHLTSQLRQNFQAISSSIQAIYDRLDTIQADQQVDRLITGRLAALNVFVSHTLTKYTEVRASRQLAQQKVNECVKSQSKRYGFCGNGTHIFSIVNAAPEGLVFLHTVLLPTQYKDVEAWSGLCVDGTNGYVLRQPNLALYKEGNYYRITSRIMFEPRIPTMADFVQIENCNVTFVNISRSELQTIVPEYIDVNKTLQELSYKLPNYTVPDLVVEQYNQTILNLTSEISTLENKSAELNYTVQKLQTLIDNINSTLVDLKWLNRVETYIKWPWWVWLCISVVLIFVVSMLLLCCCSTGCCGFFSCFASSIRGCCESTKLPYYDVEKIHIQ

[18] = tested on: live HCoV-OC43; conditions: 1 h
[19] = target: HCoV-OC43 S protein (Human coronavirus OC43, UniProt P36334); assay: cell-based; assay type: cell-based
Chain of HCoV-OC43 S protein (P36334 14-1353 limits assumed): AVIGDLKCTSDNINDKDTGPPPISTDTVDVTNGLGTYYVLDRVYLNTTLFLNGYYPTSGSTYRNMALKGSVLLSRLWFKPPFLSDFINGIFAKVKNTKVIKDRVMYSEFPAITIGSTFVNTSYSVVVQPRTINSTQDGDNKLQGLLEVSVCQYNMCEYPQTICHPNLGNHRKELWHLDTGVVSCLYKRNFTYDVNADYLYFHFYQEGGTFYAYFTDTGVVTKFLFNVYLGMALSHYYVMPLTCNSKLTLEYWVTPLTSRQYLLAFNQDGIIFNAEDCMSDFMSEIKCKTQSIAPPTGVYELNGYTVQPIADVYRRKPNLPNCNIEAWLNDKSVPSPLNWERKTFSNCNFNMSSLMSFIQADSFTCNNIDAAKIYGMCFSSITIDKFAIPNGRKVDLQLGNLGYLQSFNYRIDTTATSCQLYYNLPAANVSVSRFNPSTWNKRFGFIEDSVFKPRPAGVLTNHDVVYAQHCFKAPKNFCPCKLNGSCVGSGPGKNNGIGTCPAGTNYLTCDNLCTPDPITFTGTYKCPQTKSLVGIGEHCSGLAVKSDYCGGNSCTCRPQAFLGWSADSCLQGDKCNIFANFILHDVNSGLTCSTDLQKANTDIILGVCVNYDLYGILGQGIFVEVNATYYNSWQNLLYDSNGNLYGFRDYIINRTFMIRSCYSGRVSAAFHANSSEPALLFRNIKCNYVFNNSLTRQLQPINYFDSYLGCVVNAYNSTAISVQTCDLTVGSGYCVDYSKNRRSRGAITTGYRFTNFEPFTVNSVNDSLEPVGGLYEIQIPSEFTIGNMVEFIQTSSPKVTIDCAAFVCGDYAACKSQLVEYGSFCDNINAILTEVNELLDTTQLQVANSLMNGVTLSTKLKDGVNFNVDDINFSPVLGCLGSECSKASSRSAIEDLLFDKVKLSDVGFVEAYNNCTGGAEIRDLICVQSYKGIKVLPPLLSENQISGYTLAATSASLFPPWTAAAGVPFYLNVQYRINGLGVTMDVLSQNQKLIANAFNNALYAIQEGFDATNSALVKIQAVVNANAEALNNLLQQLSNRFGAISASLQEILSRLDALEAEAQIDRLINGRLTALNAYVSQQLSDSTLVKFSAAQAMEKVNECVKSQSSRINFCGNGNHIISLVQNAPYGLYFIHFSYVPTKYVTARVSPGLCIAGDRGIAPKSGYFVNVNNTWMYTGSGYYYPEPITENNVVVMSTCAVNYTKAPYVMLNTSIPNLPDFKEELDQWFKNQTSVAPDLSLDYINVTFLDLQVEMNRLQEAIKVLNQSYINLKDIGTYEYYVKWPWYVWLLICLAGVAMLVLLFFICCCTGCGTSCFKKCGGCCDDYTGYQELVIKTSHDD

[20] = tested on: WIV1 S protein; assay type: cell-based, SL-CoV WIV1
[21] = tested on: SHC014 S protein; assay type: cell-based, SL-CoV RsSHC014
[22] = tested on: Rs3367 S protein; assay type: cell-based, SL-CoV Rs3367

CC[C@H](C)[C@H](NC(=O)[C@H](C)NC(=O)[C@H](CCC(=O)O)NC(=O)[C@H](CCC(=O)O)NC(=O)[C@H](CC(C)C)NC(=O)[C@H](CCCCN)NC(=O)[C@H](CCCCN)NC(=O)[C@H](CCSC)NC(=O)[C@H](CCC(=O)O)NC(=O)[C@H](Cc1ccc(O)cc1)NC(=O)[C@H](CCC(=O)O)NC(=O)[C@H](CC(C)C)NC(=O)[C@H](CC(=O)O)NC(=O)[C@H](CC(C)C)NC(=O)[C@H](Cc1ccccc1)NC(=O)[C@@H](NC(=O)[C@@H](NC(=O)[C@H](CC(N)=O)NC(=O)[C@@H](NC(=O)[C@H](CCC(N)=O)NC(=O)[C@H](CC(=O)O)NC(=O)[C@H](CC(C)C)NC(=O)[C@@H](N)CO)[C@@H](C)CC)C(C)C)[C@@H](C)O)C(=O)N[C@@H](CCCCN)C(=O)N[C@@H](CCCCN)C(=O)N[C@@H](CC(C)C)C(=O)N[C@@H](CCC(=O)O)C(=O)N[C@@H](CCC(=O)O)C(=O)N[C@@H](CO)C(=O)N[C@@H](Cc1ccc(O)cc1)C(=O)N[C@H](C(=O)N[C@@H](CC(=O)O)C(=O)N[C@@H](CC(C)C)C(=O)N[C@@H](CCCCN)C(=O)N[C@@H](CCC(=O)O)C(=O)N[C@@H](CC(C)C)C(=O)NCCOCCOCCOCCOCCC(=O)N[C@@H](CSCC(=O)O[C@H]1CC[C@@]2(C)C(=CC[C@H]3[C@@H]4CC[C@H]([C@H](C)CCCC(C)C)[C@@]4(C)CC[C@@H]32)C1)C(N)=O)[C@@H](C)CC [EK1C] (H-SLDQINVTFLDLEYEMKKLEEAIKKLEESYIDLKEL[PEG4]C(X1)-NH2)
Inhibition of SARS-CoV-2 mediated cell–cell fusion at 2.5 μM [1]: completely inhibit | IC50 [2]: 0.139 µM

CC[C@H](C)[C@H](NC(=O)[C@H](C)NC(=O)[C@H](CCC(=O)O)NC(=O)[C@H](CCC(=O)O)NC(=O)[C@H](CC(C)C)NC(=O)[C@H](CCCCN)NC(=O)[C@H](CCCCN)NC(=O)[C@H](CCSC)NC(=O)[C@H](CCC(=O)O)NC(=O)[C@H](Cc1ccc(O)cc1)NC(=O)[C@H](CCC(=O)O)NC(=O)[C@H](CC(C)C)NC(=O)[C@H](CC(=O)O)NC(=O)[C@H](CC(C)C)NC(=O)[C@H](Cc1ccccc1)NC(=O)[C@@H](NC(=O)[C@@H](NC(=O)[C@H](CC(N)=O)NC(=O)[C@@H](NC(=O)[C@H](CCC(N)=O)NC(=O)[C@H](CC(=O)O)NC(=O)[C@H](CC(C)C)NC(=O)[C@@H](N)CO)[C@@H](C)CC)C(C)C)[C@@H](C)O)C(=O)N[C@@H](CCCCN)C(=O)N[C@@H](CCCCN)C(=O)N[C@@H](CC(C)C)C(=O)N[C@@H](CCC(=O)O)C(=O)N[C@@H](CCC(=O)O)C(=O)N[C@@H](CO)C(=O)N[C@@H](Cc1ccc(O)cc1)C(=O)N[C@H](C(=O)N[C@@H](CC(=O)O)C(=O)N[C@@H](CC(C)C)C(=O)N[C@@H](CCCCN)C(=O)N[C@@H](CCC(=O)O)C(=O)N[C@@H](CC(C)C)C(=O)O)[C@@H](C)CC [EK1]
IC50 [3]: 4.38 µM | IC50 [4]: 0.632 µM | IC50 [5]: 0.751 µM | IC50 [6]: 5.42 µM | IC50 [7]: 1.4 µM | IC50 [8]: 6.01 µM | IC50 ([1]; IC50, SARS-CoV-2 S-mediated cell–cell fusion): 0.287 µM and 0.315 µM | IC50 [9]: 0.802 µM | IC50 [10]: 2.47 µM | IC50 [11]: 7.67 µM | IC50 [2]: 2.38 µM | IC50 [12]: 3.69 µM | IC50 [13]: 0.239 µM | IC50 [14]: 3.96 µM | IC50 [15]: 0.409 µM | IC50 [16]: 3.24 µM | IC50 [17]: 0.207 µM | IC50 [18]: 1.55 µM | IC50 [19]: 0.788 µM

LKVLLYEEFKLLESLIMEILEYQKDSDIKENAEDTK [EK1-scrambled, reference compound]
Inhibitory activity on HCoV-NL63 S-mediated cell–cell fusion [5]: no inhibitory activity | Inhibitory activity on WIV1 S-mediated cell–cell fusion [20]: no inhibitory activity | Inhibitory activity on SHC014 S-mediated cell–cell fusion [21]: no inhibitory activity | Inhibitory activity on SARS-CoV-2 S-mediated cell–cell fusion [1]: no inhibitory activity | Inhibitory activity on MERS-CoV S-mediated cell–cell fusion [13]: no inhibitory activity | Inhibitory activity on SARS-CoV S-mediated cell–cell fusion [15]: no inhibitory activity | Inhibitory activity on Rs3367 S-mediated cell–cell fusion [22]: no inhibitory activity | Inhibitory activity on HCoV-229E S-mediated cell–cell fusion [17]: no inhibitory activity | Inhibitory activity on HCoV-OC43 S-mediated cell–cell fusion [19]: no inhibitory activity
